In PubChem BioAssay (NCI):
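Results reflect a 48-hour exposure of cells in 96-well plates to compound at five concentrations. GI50: concentration for 50% inhibition of growth. At the TGI there is no net growth.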

How the values were obtained:
Test in all cases: DTP human tumour cell line panel, 48 h
[1] = system: 786-0 renal
[2] = system: A498 renal
[3] = system: A549 NSCLC
[4] = system: ACHN renal
[5] = system: BT-549 breast
[6] = system: CAKI-1 renal
[7] = system: CCRF-CEM leukemia
[8] = system: COLO 205 colon
[9] = system: DU-145 prostate
[10] = system: EKVX NSCLC
[11] = system: HCC-2998 colon
[12] = system: HCT-116 colon
[13] = system: HCT-15 colon
[14] = system: HL-60(TB) leukemia
[15] = system: HOP-62 NSCLC
[16] = system: HOP-92 NSCLC
[17] = system: HS 578T breast
[18] = system: HT29 colon
[19] = system: IGROV1 ovarian
[20] = system: K-562 leukemia
[21] = system: KM12 colon
[22] = system: LOX IMVI melanoma
[23] = system: M14 melanoma
[24] = system: MALME-3M melanoma
[25] = system: MCF7 breast
[26] = system: MDA-MB-231 breast
[27] = system: MDA-MB-435
[28] = system: MDA-MB-468 breast
[29] = system: MOLT-4 leukemia
[30] = system: NCI-H226 lung
[31] = system: NCI-H23 lung
[32] = system: NCI-H460 lung
[33] = system: NCI-H522 lung
[34] = system: NCI/ADR-RES ovarian
[35] = system: OVCAR-3 ovarian
[36] = system: OVCAR-4 ovarian
[37] = system: OVCAR-5 ovarian
[38] = system: OVCAR-8 ovarian
[39] = system: PC-3 prostate
[40] = system: RPMI-8226 leukemia
[41] = system: RXF 393 renal
[42] = system: SF-268 CNS
[43] = system: SF-295 CNS
[44] = system: SF-539 CNS
[45] = system: SK-MEL-2 melanoma
[46] = system: SK-MEL-28 melanoma
[47] = system: SK-MEL-5 melanoma
[48] = system: SK-OV-3 ovarian
[49] = system: SN12C renal
[50] = system: SNB-19 CNS
[51] = system: SNB-75 CNS
[52] = system: SR leukemia
[53] = system: SW-620 colon
[54] = system: T-47D breast
[55] = system: TK-10 renal
[56] = system: U251 CNS
[57] = system: UACC-257 melanoma
[58] = system: UACC-62 melanoma
[59] = system: UO-31 renal

CCOc1ccc(/C=N/NC(=O)Cn2nc(Cc3ccc(OC)cc3)c3onc(C)c3c2=O)cc1
GI50 [1]: 2.99 µM | TGI [1]: 10.4 µM | GI50 [2]: 3.83 µM | TGI [2]: 13.7 µM | GI50 [3]: 3.43 µM | TGI [3]: 13.1 µM | GI50 [4]: 3.33 µM | TGI [4]: 11 µM | GI50 [5]: 10.3 µM | TGI [5]: 27.1 µM | GI50 [6]: 3.8 µM | TGI [6]: 14.8 µM | GI50 [7]: 33.4 µM | TGI [7]: > 100 µM | GI50 [8]: 40 µM | TGI [8]: > 100 µM | GI50 [9]: 9.35 µM | TGI [9]: 26.9 µM | GI50 [10]: 10.8 µM | TGI [10]: 30.3 µM | GI50 [11]: 11 µM | TGI [11]: 27.4 µM | GI50 [12]: 3.39 µM | TGI [12]: 11.6 µM | GI50 [13]: 15.1 µM | TGI [13]: > 100 µM | GI50 [14]: 51.1 µM | TGI [14]: > 100 µM | GI50 [15]: 4.8 µM | TGI [15]: 18.1 µM | GI50 [16]: 3.61 µM | TGI [16]: 16.5 µM | GI50 [17]: 4.26 µM | TGI [17]: 29 µM | GI50 [18]: 12.3 µM | TGI [18]: 32.9 µM | GI50 [19]: 15.3 µM | TGI [19]: 43 µM | GI50 [20]: 37.6 µM | TGI [20]: > 100 µM | GI50 [21]: 41.8 µM | TGI [21]: > 100 µM | GI50 [22]: 10.9 µM | TGI [22]: 27.9 µM | GI50 [23]: 13.7 µM | TGI [23]: 75.1 µM | GI50 [24]: 4.86 µM | TGI [24]: 19.5 µM | GI50 [25]: 4.37 µM | TGI [25]: 23.9 µM | GI50 [26]: 9.23 µM | TGI [26]: 27.9 µM | GI50 [27]: 25.7 µM | TGI [27]: > 100 µM | GI50 [28]: 9.93 µM | TGI [28]: 29.3 µM | GI50 [29]: 29.8 µM | TGI [29]: > 100 µM | GI50 [30]: 3.43 µM | TGI [30]: 15.9 µM | GI50 [31]: 10.7 µM | TGI [31]: 33.1 µM | GI50 [32]: 5.32 µM | TGI [32]: 19.2 µM | GI50 [33]: 14.5 µM | TGI [33]: 37.7 µM | GI50 [34]: 5.35 µM | TGI [34]: 19.7 µM | GI50 [35]: 3.2 µM | TGI [35]: 10.4 µM | GI50 [36]: 10.8 µM | TGI [36]: 25.3 µM | GI50 [37]: 14.4 µM | TGI [37]: 51.8 µM | GI50 [38]: 11.2 µM | TGI [38]: 42.1 µM | GI50 [39]: 12.4 µM | TGI [39]: 84.8 µM | GI50 [40]: 78.2 µM | TGI [40]: > 100 µM | GI50 [41]: 2.71 µM | TGI [41]: 6.38 µM | GI50 [42]: 10.5 µM | TGI [42]: 27.4 µM | GI50 [43]: 6.77 µM | TGI [43]: 21.8 µM | GI50 [44]: 7.35 µM | TGI [44]: 20 µM | GI50 [45]: 18.4 µM | TGI [45]: 41 µM | GI50 [46]: 10.4 µM | TGI [46]: 24.8 µM | GI50 [47]: 39.7 µM | TGI [47]: > 100 µM | GI50 [48]: 4.12 µM | TGI [48]: 14.5 µM | GI50 [49]: 3.42 µM | TGI [49]: 13.3 µM | GI50 [50]: 12.2 µM | TGI [50]: 32.4 µM | GI50 [51]: 1.64 µM | TGI [51]: 3.42 µM | GI50 [52]: 40.3 µM | TGI [52]: > 100 µM | GI50 [53]: 7.37 µM | TGI [53]: 36.5 µM | GI50 [54]: 3.46 µM | TGI [54]: 22.3 µM | GI50 [55]: 11 µM | TGI [55]: 28.8 µM | GI50 [56]: 3.96 µM | TGI [56]: 17.1 µM | GI50 [57]: 13.3 µM | TGI [57]: 60.9 µM | GI50 [58]: 13.2 µM | TGI [58]: 32.7 µM | GI50 [59]: 4.08 µM | TGI [59]: 19.5 µM

CC/C(=C(/c1ccc(O)cc1)c1ccc(OCCN(C)C(=O)COCCOCCNC(=O)Cc2ccc3c(c2)CN([C@@H]2CCC(=O)NC2=O)C3=O)cc1)c1ccccc1
GI50 [1]: 25.6 µM | TGI [1]: > 100 µM | GI50 [2]: > 100 µM | TGI [2]: > 100 µM | GI50 [3]: > 34.7 µM | TGI [3]: > 100 µM | GI50 [4]: > 100 µM | TGI [4]: > 100 µM | GI50 [5]: 0.0554 µM | TGI [5]: 0.509 µM | GI50 [6]: > 26.8 µM | TGI [6]: > 100 µM | GI50 [7]: 0.132 µM | TGI [7]: > 100 µM | GI50 [8]: 0.702 µM | TGI [8]: 8.99 µM | GI50 [9]: > 53 µM | TGI [9]: > 100 µM | TGI [10]: > 100 µM | GI50 [11]: 2.16 µM | TGI [11]: > 35.3 µM | GI50 [12]: > 46.9 µM | TGI [12]: > 84 µM | GI50 [13]: > 28 µM | TGI [13]: > 100 µM | GI50 [14]: < 0.0208 µM | GI50 [15]: 1.12 µM | TGI [15]: 10.1 µM | GI50 [16]: 0.0677 µM | TGI [16]: 1.8 µM | GI50 [17]: 0.427 µM | TGI [17]: > 25.2 µM | GI50 [18]: > 29.8 µM | TGI [18]: > 100 µM | GI50 [19]: 0.166 µM | TGI [19]: > 24.8 µM | GI50 [20]: 7.91 µM | TGI [20]: > 100 µM | GI50 [21]: 2.98 µM | TGI [21]: > 47.3 µM | GI50 [22]: > 37.1 µM | TGI [22]: > 59.9 µM | GI50 [23]: 7.95 µM | TGI [23]: > 100 µM | GI50 [24]: 0.112 µM | TGI [24]: 1.01 µM | GI50 [25]: < 0.0192 µM | TGI [25]: > 40 µM | GI50 [26]: 0.0438 µM | TGI [26]: 0.173 µM | GI50 [27]: 15.7 µM | TGI [27]: > 50.7 µM | GI50 [28]: < 0.0167 µM | TGI [28]: 0.214 µM | GI50 [30]: 1.68 µM | TGI [30]: > 44.4 µM | GI50 [31]: > 40.6 µM | TGI [31]: > 68.9 µM | GI50 [32]: > 56.7 µM | TGI [32]: > 100 µM | GI50 [33]: > 33.1 µM | TGI [33]: > 53.1 µM | GI50 [34]: > 100 µM | TGI [34]: > 100 µM | GI50 [35]: 10.3 µM | TGI [35]: > 53 µM | GI50 [36]: 13.6 µM | TGI [36]: > 100 µM | GI50 [37]: 13 µM | TGI [37]: > 100 µM | GI50 [38]: 0.939 µM | TGI [38]: > 100 µM | GI50 [39]: 0.407 µM | TGI [39]: > 100 µM | GI50 [40]: 3.35 µM | TGI [40]: > 32.3 µM | GI50 [41]: 3.25 µM | TGI [41]: > 30.7 µM | GI50 [42]: 3 µM | TGI [42]: > 100 µM | GI50 [43]: > 31.3 µM | TGI [43]: > 100 µM | GI50 [44]: > 32.6 µM | TGI [44]: > 49.2 µM | GI50 [45]: 1.14 µM | TGI [45]: 9.32 µM | GI50 [46]: 6.19 µM | TGI [46]: > 44 µM | GI50 [47]: 7.88 µM | TGI [47]: > 28.2 µM | GI50 [48]: 3.57 µM | TGI [48]: > 100 µM | GI50 [49]: 1.01 µM | TGI [49]: > 43 µM | GI50 [50]: 1.11 µM | TGI [50]: > 87 µM | GI50 [51]: 0.0486 µM | TGI [51]: 13.9 µM | GI50 [52]: 10 µM | TGI [52]: > 44.9 µM | GI50 [53]: 0.49 µM | TGI [53]: > 40.1 µM | GI50 [54]: < 0.0166 µM | TGI [54]: 1.48 µM | GI50 [55]: > 100 µM | TGI [55]: > 100 µM | GI50 [56]: > 35.3 µM | TGI [56]: > 74.7 µM | GI50 [57]: > 44.7 µM | TGI [57]: > 76 µM | GI50 [58]: > 31.3 µM | TGI [58]: > 54.1 µM | GI50 [59]: > 100 µM | TGI [59]: > 100 µM
